Measured values reported in ChEMBL document CHEMBL1250509, “Rose Bengal analogs and vesicular glutamate transporters (VGLUTs)” (Bioorg Med Chem, 2010).

Test system: not listed separately; call rule not given here
Assay: Inhibition of VMAT in rat synaptic vesicles assessed as [3H]HT uptake pretreated for 30 mins measured after 10 mins by scintillation spectrophotometer analysis

Compound | IC50 [nM]
O=C(O)c1c(Cl)c(Cl)c(Cl)c(Cl)c1-c1c2cc(I)c(=O)c(I)c-2oc2c(I)c(O)c(I)cc12 [ROSE BENGAL SODIUM] | 64

Test system: not listed separately
Assay: Inhibition of VGLUT in rat synaptic vesicles assessed as [3H]glutamate uptake pretreated for 30 mins measured after 10 mins by scintillation spectrophotometer analysis

Compound | IC50 [nM]
O=C(O)c1c(Br)c(Br)c(Br)c(Br)c1-c1c2cc(I)c(=O)c(I)c-2oc2c(I)c(O)c(I)cc12 | 74
O=C(O)c1ccccc1-c1c2ccc(=O)c(I)c-2oc2c(I)c(O)ccc12 | 1060
O=C(O)c1c(O)cccc1-c1c2cc(I)c(=O)c(I)c-2oc2c(I)c(O)c(I)cc12 | 7800
O=C(O)c1ccccc1-c1c2cc(Cl)c(=O)cc-2oc2cc(O)c(Cl)cc12 | > 64000
O=C(O)c1c(Cl)c(Cl)c(Cl)c(Cl)c1-c1c2cc(I)c(=O)c(I)c-2oc2c(I)c(O)c(I)cc12 [ROSE BENGAL SODIUM] | 19
O=C(O)c1ccccc1-c1c2cc(I)c(=O)c(I)c-2oc2c(I)c(O)c(I)cc12 | 36
O=C(OCc1ccccc1)c1c(Cl)c(Cl)c(Cl)c(Cl)c1-c1c2cc(I)c(=O)c(I)c-2oc2c(I)c(O)c(I)cc12 | 65
O=C(O)c1ccccc1-c1c2cc([N+](=O)[O-])c(=O)c(Br)c-2oc2c(Br)c(O)c([N+](=O)[O-])cc12 [EOSIN B] | 2440
O=C(O)c1c(Cl)c(Cl)c(Cl)c(Cl)c1-c1c2cc(Br)c(=O)c(Br)c-2oc2c(Br)c(O)c(Br)cc12 | 51
O=c1ccc2c(-c3ccccc3S(=O)(=O)O)c3ccc(O)c(O)c3oc-2c1O [PYROGALLOL RED] | > 32000
O=C(O)c1cc(Cl)c(Cl)cc1-c1c2cc(I)c(=O)c(I)c-2oc2c(I)c(O)c(I)cc12 | 41
COC(=O)c1ccccc1-c1c2cc(Br)c(=O)c(Br)c-2oc2c(Br)c(O)c(Br)cc12 | 117
COC(=O)c1ccccc1-c1c2cc([N+](=O)[O-])c(=O)c(Br)c-2oc2c(Br)c(O)c([N+](=O)[O-])cc12 | 238
O=C(O)c1c(Cl)c(Cl)c(Cl)c(Cl)c1-c1c2ccc(=O)cc-2oc2cc(O)ccc12 | 15000
COC(=O)c1c(Cl)c(Cl)c(Cl)c(Cl)c1-c1c2cc(I)c(=O)c(I)c-2oc2c(I)c(O)c(I)cc12 | 44
O=c1c(I)cc2c(-c3cc(Cl)c(Cl)c(Cl)c3Cl)c3cc(I)c(O)c(I)c3oc-2c1I [DESCARBOXY RB] | 68
Cc1c2oc3c(C)c(O)c(I)cc3c(-c3ccccc3C(=O)O)c-2cc(I)c1=O | 531
CCOC(=O)c1c(Cl)c(Cl)c(Cl)c(Cl)c1-c1c2cc(I)c(=O)c(I)c-2oc2c(I)c(O)c(I)cc12 | 192
CCOC(=O)c1ccccc1-c1c2cc(Br)c(=O)c(Br)c-2oc2c(Br)c(O)c(Br)cc12 | 65
N#CSc1ccc(C(=O)O)c(-c2c3cc(I)c(=O)c(I)c-3oc3c(I)c(O)c(I)cc23)c1 | 689
O=C(O)c1ccccc1-c1c2cc(Br)c(=O)c(Br)c-2oc2c(Br)c(O)c(Br)cc12 | 406
COc1c(I)cc2c(c1I)Oc1c(cc(I)c(OC)c1I)C21OC(=O)c2c(Cl)c(Cl)c(Cl)c(Cl)c21 | 8820
O=C(O)c1cccc([N+](=O)[O-])c1-c1c2cc(I)c(=O)c(I)c-2oc2c(I)c(O)c(I)cc12 | 6690
O=C(O)c1c(F)c(F)c(F)c(F)c1-c1c2cc(I)c(=O)c(I)c-2oc2c(I)c(O)c(I)cc12 | 102
O=C(O)c1c(Cl)ccc(Cl)c1-c1c2cc(I)c(=O)c(I)c-2oc2c(I)c(O)c(I)cc12 | 27
O=C(O)CCc1c2cc(I)c(=O)c(I)c-2oc2c(I)c(O)c(I)cc12 | 2200

Test system: not listed separately
Assay: Inhibition of VGLUT in rat synaptic vesicles assessed as [3H]glutamate uptake at 2.5 uM pretreated for 30 mins measured after 10 mins by scintillation spectrophotometer analysis

Compound | IC50
O=C(O)c1c(Cl)c(Cl)c(Cl)c(Cl)c1-c1c2c3ccccc3c(=O)cc-2oc2cc(O)c3ccccc3c12 | Not Active
O=C1OC2(c3ccc(O)cc3Oc3cc(O)ccc32)c2ccccc21 [FLUORESCEIN] | Not Active
O=C(O)c1c(Cl)c(Cl)c(Cl)c(Cl)c1-c1c2ccc(=O)cc-2oc2cc(O)c3ccccc3c12 | Not Active

Biological target: not listed separately
Assay: Inhibition of VGLUT

Compound | Ki [nM] | IC50 [nM]
O=C(O)c1c(Cl)c(Cl)c(Cl)c(Cl)c1-c1c2cc(I)c(=O)c(I)c-2oc2c(I)c(O)c(I)cc12 [ROSE BENGAL SODIUM] | 19 | –
O=C(O)c1cc(C(=O)O)c2cc(-c3ccc(-c4ccccc4)cc3)cc(O)c2n1 [QUINOLEIN DICARBOXYLIC ACID] | – | 40000
N[C@]1(C(=O)O)CC[C@@H](C(=O)O)C1 | – | 230000

Biological target: T1, Vesicular acetylcholine transporter (Rattus norvegicus, UniProt Q62666)
T1 sequence (Q62666 whole entry): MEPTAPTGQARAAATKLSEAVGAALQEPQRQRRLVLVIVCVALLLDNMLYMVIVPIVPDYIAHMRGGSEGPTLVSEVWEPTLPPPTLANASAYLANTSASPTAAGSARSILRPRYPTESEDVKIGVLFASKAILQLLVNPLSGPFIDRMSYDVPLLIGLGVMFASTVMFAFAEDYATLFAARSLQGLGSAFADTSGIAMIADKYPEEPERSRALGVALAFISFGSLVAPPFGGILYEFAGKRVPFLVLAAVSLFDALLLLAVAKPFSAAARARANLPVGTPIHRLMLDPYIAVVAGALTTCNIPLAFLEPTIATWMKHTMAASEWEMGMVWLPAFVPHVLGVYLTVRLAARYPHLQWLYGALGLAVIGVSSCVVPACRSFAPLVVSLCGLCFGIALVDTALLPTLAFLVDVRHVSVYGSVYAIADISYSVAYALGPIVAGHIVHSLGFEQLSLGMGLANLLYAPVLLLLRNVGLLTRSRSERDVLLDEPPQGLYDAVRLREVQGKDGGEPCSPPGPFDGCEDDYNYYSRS
Assay: Inhibition of VACHT in rat synaptic vesicles assessed as […] 30 mins measured after 10 mins by scintillation spectrophotometer analysis

Compound | IC50 [nM]
O=C(O)c1c(Cl)c(Cl)c(Cl)c(Cl)c1-c1c2cc(I)c(=O)c(I)c-2oc2c(I)c(O)c(I)cc12 [ROSE BENGAL SODIUM] | 9700
